Tested on: peripheral blood mononuclear cells (PBMC)
Test: Microarray analysis (Human Genome U133 plus 2.0 array) of mRNA expression in PBMC treated with compound A
Type: cell-based
Settings: 100 nM, ratio to control
Text: Since it is not easy to obtain a cancer tissue clinically, the measurement of the marker in hemocytes readily obtainable in peripheral blood would be more useful. Specifically blood was taken from a normal individual (volunteer) and peripheral blood mononuclear cells were purified and treated with compound A, followed by measurement of change in expression of the gene (mRNA) with the microarray (Human Genome […] plus 2.0 array: Affymetrix).
Ficoll-Paque PLUS solution (Amersham, 17-1440-02) was slowly added to the blood taken (with heparin added) from a healthy individual to form a layer underneath the blood (15 ml of Ficoll-Paque PLUS solution was added to 25 ml of blood). After the mixture was centrifuged at 1500 rpm for 30 min, the upper part containing platelets was removed and then a layer containing mononuclear cells was transferred to another tube. The cells were suspended in PBS and centrifuged at 1500 rpm for 5 min, followed by removal of the supernatant. After these steps were repeated twice, the cells were again suspended in RPMI1640 (containing 10% FBS). The number of the cells was then counted.
The cells were suspended in the medium to 5×10^6 cells/ml and plated 1 ml per well of a 24-well plate. Immediately, 111 μl of compound A (ten times more concentrated than the final concentrations) was added to the well (four wells per each concentration tested). The cells were then cultured in an incubator with 5% carbon dioxide gas at 37° C. Two or four hours later, the supernatant was collected and centrifuged at 1500 rpm for five minutes. TRI reagent (SIGMA) (1 ml) was added to each well of the plate from which the supernatant was removed to harvest the cells, which was added to the centrifuged pellet to dissolve. RNA was purified in accordance with the protocol of TRI reagent. RNA was further purified using RNeasy (QIAGEN). Absorbance at 260 nm was measured to quantify an amount of RNA.
A .cel file for each sample was obtained by using GeneChip Operating Software Ver.1.2 (Affymetrix). The RMA method was applied to ten of the .cel files obtained in the microarray experiment. Log signal intensity at a gene level was obtained by normalization of that at a probe level. By subtracting a control value from log signal intensity for each case, the log signal intensity was converted into a log signal ratio to the control. Genes were narrowed down in the basis of a log signal ratio, and a signal value. Specifically, among genes showing that the P value was 5% or less; the expression level in the untreated (control) is 100 or more by signal value; and the expression level when treated with 10 nM of compound A both for two and four hours decreased by 50% or more, genes of which expression level decreased to 25% or less upon the two-hour treatment were picked out. The software used is R2.2.1 (http://www.r-project.org/), affy package 1.8.1 (http://www.bioconductor.org).
Among genes showing, upon the treatment with compound A, that the P value was 5% or less; the expression level in the untreated (control) is 100 or more by signal value; and the expression level when treated with 10 nM of compound A both for two and four hours decreased by 50% or more, genes of which expression level decreased to 25% or less upon the two-hour treatment, and results thereof were shown in Table 2. For each gene evaluated, gene name (Gene Name), abbreviated name (Gene Symbol), accession number (Accession), alias name (Synonym), Probe set number in Human Genome U133 Plus 2.0 Array (Human Genome U133 Plus 2.0 Array Probeset ID), the expression level upon the two-hour treatment with E7107 (E7107 (2 h)), and the expression level upon the four-hour treatment with E7107 (E7107 (4 h)) were respectively shown in Table 2.

CCC(O)C(C)C1OC1CC(C)(O)/C=C/C=C(\C)C1OC(=O)CC(O)CCC(C)(O)C(OC(=O)N2CCN(C3CCCCCC3)CC2)/C=C/C1C (stereo not drawn) [E7107, (8E,12E,14E)-7-((4-Cycloheptylpiperazin-1-yl)carbonyl)oxy-3,6,16,21-tetrahydroxy-6,10,12,16,20-pentamethyl-18,19-epoxytricosa-8,12,14-trien-11-olide]
AHSA2 mRNA expression level (226665_at) (2 h): 0.20 | ATXN1 mRNA expression level (242230_at) (2 h): 0.25 | C13orf31 mRNA expression level (228937_at) (2 h): 0.04 | C15orf48 mRNA expression level (223484_at) (2 h): 0.02 | CCRL2//LOC642312 mRNA expression level (211434_s_at) (2 h): 0.22 | CLEC5A mRNA expression level (219890_at) (2 h): 0.08 | CSF2RA mRNA expression level (210340_s_at) (2 h): 0.08 | CTSL1 mRNA expression level (202087_s_at) (2 h): 0.20 | DHRS9 mRNA expression level (223952_x_at) (2 h): 0.18 | DOK3 mRNA expression level (223553_s_at) (2 h): 0.30 | FPRL2 mRNA expression level (230422_at) (2 h): 0.05 | GNA15 mRNA expression level (205349_at) (2 h): 0.11 | GPR84 mRNA expression level (223767_at) (2 h): 0.19 | GTF2H1 mRNA expression level (202451_at) (2 h): 0.07 | HNRPA2B1 mRNA expression level (225107_at) (2 h): 0.07 | HPSE mRNA expression level (222881_at) (2 h): 0.13 | IQCG mRNA expression level (235347_at) (2 h): 0.08 | LOC51315 mRNA expression level (233329_s_at) (2 h): 0.11 | MS4A7 mRNA expression level (224358_s_at) (2 h): 0.22 | NLRP12 mRNA expression level (1554952_s_at) (2 h): 0.24 | NRIP3 mRNA expression level (219557_s_at) (2 h): 0.11 | NSMCE4A mRNA expression level (228506_at) (2 h): 0.19 | OLR1 mRNA expression level (210004_at) (2 h): 0.01 | RAPH1 mRNA expression level (225188_at) (2 h): 0.05 | RBBP6 mRNA expression level (212781_at) (2 h): 0.12 | SLC25A19 mRNA expression level (223222_at) (2 h): 0.17 | SLC43A2 mRNA expression level (228918_at) (2 h): 0.17 | TNFAIP6 mRNA expression level (206026_s_at) (2 h): 0.07 | TNS1 mRNA expression level (221748_s_at) (2 h): 0.09 | TRAPPC4 mRNA expression level (217959_s_at) (2 h): 0.08 | Transcribed locus mRNA expression level (230098_at) (2 h): 0.08 | WSB1 mRNA expression level (201294_s_at) (2 h): 0.29 | ZCCHC6 mRNA expression level (220933_s_at) (2 h): 0.14 | AHSA2 mRNA expression level (226665_at) (4 h): 0.23 | ATXN1 mRNA expression level (242230_at) (4 h): 0.13 | C13orf31 mRNA expression level (228937_at) (4 h): 0.06 | C15orf48 mRNA expression level (223484_at) (4 h): 0.01 | CCRL2//LOC642312 mRNA expression level (211434_s_at) (4 h): 0.29 | CLEC5A mRNA expression level (219890_at) (4 h): 0.01 | CSF2RA mRNA expression level (210340_s_at) (4 h): 0.10 | CTSL1 mRNA expression level (202087_s_at) (4 h): 0.13 | DHRS9 mRNA expression level (223952_x_at) (4 h): 0.12 | DOK3 mRNA expression level (223553_s_at) (4 h): 0.35 | FPRL2 mRNA expression level (230422_at) (4 h): 0.02 | GNA15 mRNA expression level (205349_at) (4 h): 0.15 | GPR84 mRNA expression level (223767_at) (4 h): 0.38 | GTF2H1 mRNA expression level (202451_at) (4 h): 0.02 | HNRPA2B1 mRNA expression level (225107_at) (4 h): 0.10 | HPSE mRNA expression level (222881_at) (4 h): 0.11 | IQCG mRNA expression level (235347_at) (4 h): 0.05 | LOC51315 mRNA expression level (233329_s_at) (4 h): 0.06 | MS4A7 mRNA expression level (224358_s_at) (4 h): 0.03 | NLRP12 mRNA expression level (1554952_s_at) (4 h): 0.20 | NRIP3 mRNA expression level (219557_s_at) (4 h): 0.24 | NSMCE4A mRNA expression level (228506_at) (4 h): 0.19 | OLR1 mRNA expression level (210004_at) (4 h): 0.00 | RAPH1 mRNA expression level (225188_at) (4 h): 0.10 | RBBP6 mRNA expression level (212781_at) (4 h): 0.17 | SLC25A19 mRNA expression level (223222_at) (4 h): 0.18 | SLC43A2 mRNA expression level (228918_at) (4 h): 0.08 | TNFAIP6 mRNA expression level (206026_s_at) (4 h): 0.02 | TNS1 mRNA expression level (221748_s_at) (4 h): 0.06 | TRAPPC4 mRNA expression level (217959_s_at) (4 h): 0.04 | Transcribed locus mRNA expression level (230098_at) (4 h): 0.08 | WSB1 mRNA expression level (201294_s_at) (4 h): 0.25 | ZCCHC6 mRNA expression level (220933_s_at) (4 h): 0.06
